Experimental data: EP1731520A1, “Pyrrolo[2,3-d]pyrimidine derivatives which are antagonists of adenosine A1, A2A, and A3” (OSI Pharmaceuticals, Inc., priority 1999, dated 2001)
Like-named read-outs stand apart in the source and are kept apart here.

Experiments:
[1] = molecular target: human A1 receptor subtype (Homo sapiens, UniProt P30542); settings: for A1 receptor binding affinity compared with reference compounds 1318 or 1319: saturation and competition radio ligand binding; for Ki: read-out: Al Binding Ki; for Ki-A1 (selectivity versus other three subtypes): Table 15, Adenosine A1 Receptor Selective Compounds
Chain of human A1 receptor subtype (P30542 whole entry): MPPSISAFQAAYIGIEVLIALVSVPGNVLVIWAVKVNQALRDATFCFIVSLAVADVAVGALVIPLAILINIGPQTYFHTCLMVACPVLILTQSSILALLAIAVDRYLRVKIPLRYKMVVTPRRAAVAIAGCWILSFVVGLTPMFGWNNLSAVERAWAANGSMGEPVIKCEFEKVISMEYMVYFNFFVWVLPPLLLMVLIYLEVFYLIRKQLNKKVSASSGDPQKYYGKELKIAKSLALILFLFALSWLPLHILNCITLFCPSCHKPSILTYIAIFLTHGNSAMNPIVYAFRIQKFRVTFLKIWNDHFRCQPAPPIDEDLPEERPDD

[2] = molecular target: T1, human A3 receptor subtype (Homo sapiens, UniProt P0DMS8); test: Adenosine 3 receptor competition radioligand binding, [125I] AB-MECA, HEK293 membranes; settings: Table 17, Adenosine A3 Receptor Selective Compounds
T1 sequence (P0DMS8 1-318): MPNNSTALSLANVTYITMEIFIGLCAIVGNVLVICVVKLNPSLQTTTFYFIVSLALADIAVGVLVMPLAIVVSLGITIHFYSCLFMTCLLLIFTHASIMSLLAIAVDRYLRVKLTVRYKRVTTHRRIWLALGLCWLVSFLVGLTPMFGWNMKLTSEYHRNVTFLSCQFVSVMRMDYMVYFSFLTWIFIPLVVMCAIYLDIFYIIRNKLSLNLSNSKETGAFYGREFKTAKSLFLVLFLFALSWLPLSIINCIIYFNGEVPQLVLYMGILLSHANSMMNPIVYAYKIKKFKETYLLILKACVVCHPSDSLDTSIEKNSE

[3] = Table 6, Effect of N6-Substituent
[4] = Table 7, Effect of C2-Substituent

Compound	A1 receptor binding affinity compared with reference compounds 1318 or 1319 [1]	Ki-A3 (selectivity versus other three subtypes) [2]	other results
1-[6-(4-Hydroxy-4-phenyl-piperidin-1-yl-methyl)-2-phenyl-7H-pyrrolo[2,3-d]pyrimidin-4-yl]-pyrrolidine-2-carboxylic acid amide [Compound 1505]	equaled or surpassed	–	–
Cc1[nH]c2nc(-c3ccccc3)nc(NC3CCC(NS(C)(=O)=O)CC3)c2c1C (centres unmarked) [Compound 604]	–	–	Ki [1, 3]: > 10 nM
Cc1[nH]c2nc(-c3ccccc3)nc(NC3CCC(OC(=O)c4ccccc4)CC3)c2c1C (centres unmarked) [Compound 611]	–	–	Ki [1, 3]: 786 nM
Cc1[nH]c2nc(-c3ccccc3)nc(N[C@@H]3C[C@@H](O)[C@@H](O)C3)c2c1C [Compound 616]	–	–	Ki [1, 3]: 34.3 nM
Cc1[nH]c2nc(C(C)C)nc(N[C@H]3CC[C@H](O)CC3)c2c1C [Compound 708]	–	–	Ki [1, 4]: 2140 nM
Cc1[nH]c2nc(-c3ccccc3F)nc(N[C@H]3CC[C@H](O)CC3)c2c1C [Compound 709]	–	–	Ki [1, 4]: 48.7 nM
CNC(=O)NC1CCCCC1Nc1nc(-c2ccccc2)nc2[nH]c(C)c(C)c12 (centres unmarked) [Compound 1500]	–	–	Ki-A1 (selectivity versus other three subtypes) [1]: * (at least 10 times more selective than other three subtypes.)
CC(=O)NCCNc1nc(-c2ccccc2)nc2[nH]ccc12 [Compound 1501]	–	–	Ki-A1 (selectivity versus other three subtypes) [1]: * (at least 10 times more selective than other three subtypes.)
CNC(=O)NCCNc1nc(-c2cccc(Cl)c2)nc2[nH]ccc12 [Compound 1502]	–	–	Ki-A1 (selectivity versus other three subtypes) [1]: * (at least 10 times more selective than other three subtypes.)
O[C@H]1CC[C@H](Nc2nc(-c3ccccc3)nc3[nH]c(CN4CCOCC4)cc23)CC1 [Compound 1503]	–	–	Ki-A1 (selectivity versus other three subtypes) [1]: * (at least 10 times more selective than other three subtypes.)
O[C@H]1CC[C@H](Nc2nc(-c3ccccc3)nc3[nH]c(CN4CCSCC4)cc23)CC1 [Compound 1504]	–	–	Ki-A1 (selectivity versus other three subtypes) [1]: * (at least 10 times more selective than other three subtypes.)
NC(=O)[C@@H]1CCCN1c1nc(-c2ccccc2)nc2[nH]ccc12 [Compound 1506]	equaled or surpassed	–	–
COCc1cc2c(N3CCC[C@H]3C(N)=O)nc(-c3ccccc3)nc2[nH]1 [Compound 1507]	equaled or surpassed	–	–
NC(=O)C1CC(O)CN1c1nc(-c2ccccc2)nc2[nH]ccc12 (centres unmarked) [Compound 1508, 4-Hydroxy-1-(2-phenyl-7H-pyrrolo[2,3-d]pyrimidin-4-yl]-pyrrolidine-2-carboxylic acid amide]	equaled or surpassed	–	–
NC(=O)[C@@H]1CCCN1c1nc(-c2ccccc2)nc2[nH]c(CCC(=O)O)cc12 [Compound 1509, 3-[4-((S)-2-Carbamoyl-pyrrolodin-1-yl)-2-phenyl-7H-pyrrolo[2,3-d]pyrimidin-6-yl]-propionic acid]	equaled or surpassed	–	–
NC(=O)COCc1cc2c(N3CCC[C@H]3C(N)=O)nc(-c3ccccc3)nc2[nH]1 [Compound 1510]	equaled or surpassed	–	–
NC(=O)C1CCCN1c1nc(-c2ccccc2)nc2[nH]c(C(=O)O)cc12 (centres unmarked) [Compound 1511, [4-(2-Carbamoylpyrrolidin-1-yl)-2-phenyl-7H-pyrrolo[2,3-d]pyrimidine-6-carboxylic acid]]	equaled or surpassed	–	–
Cc1cc2c(N3CCC[C@H]3C(N)=O)nc(-c3ccccc3)nc2[nH]1 [Compound 1512, 1-(6-methyl-2-phenyl-7H-pyrrolo[2,3-d]pyrimidine-4-yl)-(S)-pyrrolidine-2-carboxylic acid amide]	equaled or surpassed	–	–
NC(=O)C1CCCN1c1nc(-c2ccccc2)nc2[nH]c(COCCO)cc12 (centres unmarked) [Compound 1513, 1-[6-(2-Hydroxy-ethoxymethyl) -2-phenyl-7H-pyrrolo[2,3-d]pyrimidin-4-yl]-pyrrolidine-2-carb oxylic acid amide]	equaled or surpassed	–	–
OC1CCC(Nc2nc(-c3ccccc3)nc3[nH]c(Cn4ccnc4)cc23)CC1 (centres unmarked) [Compound 1514, 4-(6-Imidazol-1-ylmethyl-2-phenyl-7H-pyrrolo[2,3-d]pyrimidin-4-ylamino)-cyclohexanol]	equaled or surpassed	–	–
OCCOCc1cc2c(N[C@H]3CC[C@H](O)CC3)nc(-c3ccccc3)nc2[nH]1 [Compound 1516]	equaled or surpassed	–	–
COC(=O)c1cc2c(NC3CCC(O)CC3)nc(-c3ccccc3)nc2[nH]1 (centres unmarked) [Compound 1517, 4-(4-Hydroxy-cyclohexylamino) -2-phenyl-7H-pyrrolo[2,3-d]pyrimidine-6-carboxylic acid methyl ester]	equaled or surpassed	–	–

Compound	A1 receptor binding affinity compared with reference compounds 1318 or 1319 [1]	Ki-A3 (selectivity versus other three subtypes) [2]	other results
COC(=O)COCc1cc2c(N3CCCC3C(N)=O)nc(-c3ccccc3)nc2[nH]1 (centres unmarked) [Compound 1518, [4-(2-Carbamoyl-pyrrolidin-1-yl) -2-phenyl-7H-pyrrolo[2,3-d]pyrimidin-6-ylmethoxy]-acetic acid methyl ester]	equaled or surpassed	–	–
NC(=O)C1CCCN1c1nc(-c2ccccc2)nc2[nH]c(COCC(=O)O)cc12 (centres unmarked) [Compound 1519, [4-(2-Carbamoyl-pyrrolidin-1-yl) -2-phenyl-7H-pyrrolo[2,3-d]pyrimidin-6-ylmethoxy]-acetic acid]	equaled or surpassed	–	–
NC(=O)c1cc2c(NC3CCC(O)CC3)nc(-c3ccccc3)nc2[nH]1 (centres unmarked) [Compound 1520, 4-(4-Hydroxy-cyclohexylamino)-2-phenyl-7H-pyrrolo[2,3-d]pyrimidine-6-carboxylic acid amide]	equaled or surpassed	–	–
CC(=O)NC(CNc1nc(-c2ccccc2)nc2[nH]c(C)c(C)c12)C(C)C (centres unmarked) [Compound 1700]	–	* (at least 10 times more selective than other three subtypes.)	–
CCN(CC)C(=O)NCCNc1nc(-c2ccccc2)nc2[nH]c(C)c(C)c12 [Compound 1701]	–	* (at least 10 times more selective than other three subtypes.)	–
CC(=S)NCCNc1nc(-c2ccccc2)nc2[nH]c(C)c(C)c12 [Compound 1702]	–	* (at least 10 times more selective than other three subtypes.)	–
OC1CCN(c2nc(-c3ccccc3)nc3[nH]c(-c4ccccc4)cc23)C1 (centres unmarked) [Compound 1703]	–	* (at least 10 times more selective than other three subtypes.)	–
CCNC(=O)NCCCNc1nc(-c2ccccc2)nc2[nH]c(C)c(C)c12 [Compound 1704]	–	* (at least 10 times more selective than other three subtypes.)	–
Cc1[nH]c2nc(-c3ccccc3)nc(NC3CCC(OC(=O)CN)C3)c2c1C (centres unmarked) [Compound 1705]	–	* (at least 10 times more selective than other three subtypes.)	–
OC1CCC(Nc2nc(-c3ccccc3)nc3[nH]ccc23)C1 (centres unmarked) [Compound 1706]	–	* (at least 10 times more selective than other three subtypes.)	–
O=C(NCCNc1nc(-c2ccccc2)nc2[nH]ccc12)c1ccc[nH]1 [Compound 1707]	–	* (at least 10 times more selective than other three subtypes.)	–
O=C1NCCN1CCNc1nc(-c2ccccc2)nc2[nH]c(-c3ccccc3)cc12 [Compound 1708]	–	* (at least 10 times more selective than other three subtypes.)	–
CC(C)C(Nc1nc(-c2ccccc2)nc2[nH]c(-c3ccccc3)cc12)C(N)=O (centres unmarked) [Compound 1709]	–	* (at least 10 times more selective than other three subtypes.)	–
NC(=O)C(Cc1ccccc1)Nc1nc(-c2ccccc2)nc2[nH]c(-c3ccccc3)cc12 (centres unmarked) [Compound 1710]	–	* (at least 10 times more selective than other three subtypes.)	–
OCC1CN(c2nc(-c3ccccc3)nc3[nH]ccc23)C1 [Compound 1711]	–	* (at least 10 times more selective than other three subtypes.)	–
Clc1cccc(OCc2cc3c(NCCc4ccc[nH]4)nc(-c4ccccc4)nc3[nH]2)c1 [Compound 1712]	–	* (at least 10 times more selective than other three subtypes.)	–
CC(=O)NCCNc1nc(-c2ccccc2)nc2[nH]c(CN3CCC[C@H]3CNc3ccccc3)cc12 [Compound 1713]	–	* (at least 10 times more selective than other three subtypes.)	–
OC[C@@H](Nc1nc(-c2ccccc2)nc2[nH]c(COc3cccc(Cl)c3)cc12)c1ccccc1 [Compound 1714]	–	* (at least 10 times more selective than other three subtypes.)	–
CNC(=O)N1CCCCC1CNc1nc(-c2ccccc2)nc2[nH]c(COc3cccc(Cl)c3)cc12 (centres unmarked) [Compound 1715]	–	* (at least 10 times more selective than other three subtypes.)	–
COC(=O)CC1CCN(c2nc(-c3ccccc3)nc3[nH]c(COc4cccc(Cl)c4)cc23)C1 (centres unmarked) [Compound 1716]	–	* (at least 10 times more selective than other three subtypes.)	–
NC(=O)CC1CCN(c2nc(-c3ccccc3)nc3[nH]c(COc4cccc(Cl)c4)cc23)C1 (centres unmarked) [Compound 1717]	–	* (at least 10 times more selective than other three subtypes.)	–
OCC1CCCN(c2nc(-c3ccccc3)nc3[nH]c(COc4cccc(Cl)c4)cc23)C1 (centres unmarked) [Compound 1718]	–	* (at least 10 times more selective than other three subtypes.)	–
